The text below walks through data of patent US7884234B2, “N-phenyloxamide derivatives” (Institute of Medicinal Molecular Design, inc., priority 2006, dated 2011).

Type in all cases: biochemical
The target of test [1] is T1, recombinant human PAI-1 (Homo sapiens, UniProt P05121).
T1 construct: purchased Molecular Innovations, Inc
Description: Test Example 4: human PAI-1 inhibitory activity (amount of PAI-1 bound to plate-coated tPA, ELISA). The note with it: PAI-1 50 ng/ml bound to coated tPA, read-out: Inhibition Rate of Human PAI-1 Activity (%); for inhibition at 0.1 µM: compound 0.1 μM; for inhibition at 0.3 µM: compound 0.3 μM. As for the experimental part:
100 μl of tPA solution where one-chain recombinant tPA (hereinafter refereed to as tPA; American diagnostica, inc.) diluted with Buffer A to achieve a concentration of 10 μg/ml was added to each well of 96-well plate (Nunc Maxisorp), incubated for one night at […] to coated with tPA. Then, after suction of tPA solution from the 96-well plate, rinsed successively with Buffer A and Buffer B.
To Buffer B, solutions of the present application compound dissolved with DMSO (final DMSO concentration: 0.2%) and recombinant human PAI-1 (Molecular Innovations, Inc.) were added and blended so that the final concentrations would be 0.1 to 3.0 μM and 50 ng/ml respectively, and were incubated for 15 minutes on ice. These mixed solutions were added to rinsed 96-well plates at 100 μl/well, and incubated for 60 minutes at room temperature. To prepare calibration curve, PAI-1 solutions without the present application compound (solutions where the final concentrations being 100, 50, 25, 12.5, 6.25, 3.13, 1.56 ng/ml PAI-1) were added at 100 μl/well, and were incubated for 60 minutes at room temperature, as standard.
After incubation, the reaction mixture was suction removed, and rinsed each well with Wash Buffer. Next, anti-human PAI-1 monoclonal antibody (PROGEN Inc.) diluted with Buffer C to be 3.0 μg/ml was added to the 96-well plate at 100 μl/well, and incubated for 1 hour at room temperature. After rinsing each well with Wash Buffer, alkaline phosphatase-labeled goat anti-mouse IgG (H+L) (Jackson ImmunoResearch, Inc.) diluted with Buffer D to be 0.12 μg/ml was added at 100 μl/well, and incubated for 1 hour at room temperature. After rinsing each well with Wash Buffer, 1.0 mg/ml p-Nitrophenyl Phosphate (SIGMA) was added to the 96-well plate at 100 μl/well to start the reaction. After 30 to 60 minutes, 25 μl of 0.5 N NaOH was added to stop the reaction, and the absorbance was measured at 405 nm using a multiplate reader (GENios; TECAN G.M.B.H.).
Based on the calibration curve prepared from the standard wells, amounts of PAI-1 bound to tPA in the wells treated with the present application compound were calculated, and the PAI-1 inhibition rates by the present application compounds were obtained by the following equation. [PAI-1 Inhibition Rate (%)]=[1-(amount of PAI-1 bound to tPA on the well treated with the present application compound)/(amount of PAI-1 bound to tPA on the well treated with PAI-1 solution without present application compound (solution with the final concentration of 50 ng/ml PAI-1)]×100 <Composition of Buffer A> 0.1 M Tris-HCl-150 150 mM NaCl pH 7.7 <Composition of Buffer B> 50 mM sodium phosphate 0.1 M NaCl 1 mM EDTA pH 6.6 <Composition of Buffer C> 50 mM sodium phosphate 100 mM NaCl pH 7.4 <Composition of Buffer D> 0.01 M Tris-HCl 0.25 M NaCl pH 8.0 <Composition of Wash Buffer> 0.05% Tween 20 0.1% BSA in Buffer A <Composition of p-Nitrophenyl Phosphate Solution> 1 M Diethanolamine 0.5 mM MgCl2 p-Nitrophenyl phosphate pH 9.8
For orientation: An ELISA detects its analyte on a solid surface through an enzyme-linked reagent.

The target of the next test is T2, recombinant rat PAI-1 (Rattus norvegicus, UniProt P20961).
T2 construct: purchased Molecular Innovations, Inc
T2 sequence (P20961 24-402): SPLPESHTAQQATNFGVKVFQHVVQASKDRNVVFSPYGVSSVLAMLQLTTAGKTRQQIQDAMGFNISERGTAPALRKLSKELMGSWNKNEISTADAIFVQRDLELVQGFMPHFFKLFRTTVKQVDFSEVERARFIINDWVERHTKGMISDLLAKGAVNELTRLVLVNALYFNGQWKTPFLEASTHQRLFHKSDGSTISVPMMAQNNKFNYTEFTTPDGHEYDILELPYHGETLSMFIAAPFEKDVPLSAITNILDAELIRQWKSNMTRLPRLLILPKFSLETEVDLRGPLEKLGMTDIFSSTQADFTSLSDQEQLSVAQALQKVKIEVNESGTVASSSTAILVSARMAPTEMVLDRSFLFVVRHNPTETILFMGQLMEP
In words: Test Example 3: rat PAI-1 inhibitory activity (tPA fluorogenic substrate assay, pH7.4 HEPES buffer). The note with it: for IC50: pH7.4 HEPES buffer, obtained from Table 7 results; for inhibition at 10 µM / inhibition at 3 µM: pH 7.4, read-out: Inhibition Rate of Rat PAI-1 Activity (%). The procedure: (§1) Except using the pH7.4 HEPES buffer instead of pH7.5 Tris buffer, and the change of incubation time from 15 minutes to 10 minutes of the mixed solution added by two-chain tPA solution, tests were carried out similarly to the Test Example 1.

Test [2] concerns the target T1, recombinant human PAI-1. In words: Test Example 2: human PAI-1 inhibitory activity (tPA fluorogenic substrate assay, pH7.4 HEPES buffer). Conditions: for inhibition at 3 µM: pH 7.4, read-out: Inhibition Rate of Human PAI-1 Activity (%); for IC50: pH7.4 HEPES buffer, obtained from Table 5 results. As for the experimental part:
as §1
<Compotion of pH7.4 HEPES Buffer>
0.1% Polyethylene glycol 8,000 (Hampton Research Corporation)
2 mM Dimethyldecylphoshine oxide [Apo-10] (Fluka Corporation)

T1 sequence (P05121 24-402): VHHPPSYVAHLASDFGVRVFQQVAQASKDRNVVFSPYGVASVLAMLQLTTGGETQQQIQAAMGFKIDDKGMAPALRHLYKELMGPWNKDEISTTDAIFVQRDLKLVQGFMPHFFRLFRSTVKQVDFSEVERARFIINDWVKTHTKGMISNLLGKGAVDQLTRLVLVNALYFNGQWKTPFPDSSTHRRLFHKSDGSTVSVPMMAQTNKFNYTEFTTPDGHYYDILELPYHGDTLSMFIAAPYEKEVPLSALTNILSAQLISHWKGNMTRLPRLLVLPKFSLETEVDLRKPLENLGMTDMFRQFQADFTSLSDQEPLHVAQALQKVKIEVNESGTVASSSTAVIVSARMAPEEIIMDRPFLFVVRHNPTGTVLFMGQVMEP

Regarding `CCCCc1ccc(CN(C(=O)C(=O)O)c2ccc(-c3ccc(C(C)(C)C)cc3)cc2)cc1` [compound 86, N-(4-butylbenzyl)-N-[4′-(tert-butyl)biphenyl-4-yl]oxamic Acid], at recombinant human PAI-1 [1], the inhibition (in general, the share of the control response that was lost under treatment) at 0.1 µM is 0% and the inhibition at 0.3 µM was found to be 0%. In addition, the IC50 (as a rule, the concentration that inhibits the measured activity by half) at recombinant rat PAI-1 turned out to be 1390 nM. Further, on recombinant human PAI-1 [2], the inhibition at 3 µM was > 99% and the IC50 stood at 730 nM.
Regarding `COc1cc(OC)c(N(Cc2ccc(C(C)(C)C)cc2)C(=O)C(=O)O)cc1-c1ccc(OC(F)(F)F)cc1` [compound 70, N-[4-(tert-butyl)benzyl]-N-[2,4-dimethoxy-4′-(trifluoromethoxy)biphenyl-5-yl]oxamic Acid], on recombinant human PAI-1 [1], the inhibition at 0.1 µM came out at 0% and the inhibition at 0.3 µM worked out at 0%. Moreover, on recombinant rat PAI-1, the inhibition at 10 µM was > 99% and the IC50 turned out to be 2300 nM. Also, the IC50 on recombinant human PAI-1 [2] worked out at 1320 nM.
As for `CCCOc1ccc(N(Cc2ccc(C(C)(C)C)cc2)C(=O)C(=O)O)cc1-c1ccc(OC(F)(F)F)cc1` [compound 65, N-[4-(tert-butyl)benzyl]-N-[2-propoxy-4′-(trifluoromethoxy)biphenyl-5-yl]oxamic Acid], the inhibition at 0.1 µM on recombinant human PAI-1 [1] is 0%. The IC50 on recombinant rat PAI-1 amounted to 1720 nM. On recombinant human PAI-1 [2], the inhibition at 3 µM was > 99% and the IC50 worked out at 1150 nM.
Take `CCCOc1ccc(N(Cc2ccc(C(C)(C)C)cc2)C(=O)C(=O)O)c(-c2ccc(OC(F)(F)F)cc2)c1` [compound 78, N-[4-(tert-butyl)benzyl]-N-[5-propoxy-4′-(trifluoromethoxy)biphenyl-2-yl]oxamic Acid]: the inhibition at 0.1 µM at recombinant human PAI-1 [1] stood at 0%. The IC50 at recombinant rat PAI-1 was 1840 nM. Besides, on recombinant human PAI-1 [2], the inhibition at 3 µM is > 99% and the IC50 is 1080 nM.
In the case of `Cc1ccc(N(Cc2ccc(C(C)(C)C)cc2)C(=O)C(=O)O)cc1-c1ccc(OC(F)(F)F)cc1` [compound 56, N-[4-(tert-butyl)benzyl]-N-[2-methyl-4′-(trifluoromethoxy)biphenyl-5-yl]oxamic Acid], the inhibition at 0.1 µM on recombinant human PAI-1 [1] came to 4%. On recombinant rat PAI-1, the inhibition at 10 µM is > 99% and the IC50 was found to be 1870 nM. The IC50 at recombinant human PAI-1 [2] turned out to be 1400 nM.
Turning to `CC(C)(C)c1ccc(COc2ccc(-c3ccc(OC(F)(F)F)cc3)cc2N(Cc2ccccc2)C(=O)C(=O)O)cc1` [compound 59, N-benzyl-N-{4-[4-(tert-butyl)benzyloxy]-4′-(trifluoromethoxy)biphenyl-3-yl}oxamic Acid], on recombinant rat PAI-1, the inhibition at 3 µM was > 99%, the inhibition at 10 µM is > 99% and the IC50 amounted to 1110 nM. In addition, at recombinant human PAI-1 [2], the inhibition at 3 µM was > 99% and the IC50 amounted to 660 nM.
For `CCC(CC)Oc1ccc(N(Cc2ccc(C(C)(C)C)cc2)C(=O)C(=O)O)cc1-c1ccc(OC(F)(F)F)cc1` [compound 77, N-[4-(tert-butyl)benzyl]-N-[2-(1-ethylpropoxy)-4′-(trifluoromethoxy)biphenyl-5-yl]oxamic Acid], at recombinant human PAI-1 [1], the inhibition at 0.1 µM was found to be 12%. Besides, at recombinant rat PAI-1, the IC50 came out at 1420 nM. Also, at recombinant human PAI-1 [2], the inhibition at 3 µM is > 99% and the IC50 came out at 1040 nM.
For the molecule `CC(C)(C)c1ccc(CN(C(=O)C(=O)O)c2ccc(-c3ccc(OC(F)(F)F)cc3)cc2)cc1` [compound 8, N-[4-(tert-butyl)benzyl]-N-[4′-(trifluoromethoxy)biphenyl-4-yl]oxamic Acid], the inhibition at 0.1 µM at recombinant human PAI-1 [1] was found to be 0%. For the same molecule, the IC50 at recombinant rat PAI-1 was found to be 3130 nM; on recombinant human PAI-1 [2], 1630 nM.
For the molecule `CC(C)(C)c1ccc(CN(C(=O)C(=O)O)c2cc(C(F)(F)F)ccc2-c2ccc(OC(F)(F)F)cc2)cc1` [compound 48, N-[4-(tert-butyl)benzyl]-N-[4′-(trifluoromethoxy)-4-(trifluoromethyl)biphenyl-2-yl]oxamic Acid], on recombinant rat PAI-1, the inhibition at 3 µM worked out at 61% and the IC50 was 2450 nM. Besides, on recombinant human PAI-1 [2], the half-maximal inhibitory concentration (IC50) was determined as 1140 nM.
For the molecule `CC(C)(C)c1ccc(CN(C(=O)C(=O)O)c2ccc(Oc3ccc(OC(F)(F)F)cc3)cc2C(F)(F)F)cc1` [compound 54, N-[4-(tert-butyl)benzyl]-N-{4-[4-(trifluoromethoxy)phenoxy]-2-(trifluoromethyl)phenyl}oxamic Acid], the inhibition at 0.1 µM on recombinant human PAI-1 [1] was determined as 0%. The inhibition at 0.3 µM at recombinant human PAI-1 [1] amounted to 0%. Further, the values for the half-inhibitory concentration (IC50) on recombinant rat PAI-1 and at recombinant human PAI-1 [2] were 2040 nM and 1320 nM, respectively.
In the case of `CC(C)(C)c1ccc(CN(C(=O)C(=O)O)c2cc(-c3ccc(OC(F)(F)F)cc3)cc(C(F)(F)F)c2)cc1` [compound 18, N-[4-(tert-butyl)benzyl]-N-[4′-(trifluoromethoxy)-5-(trifluoromethyl)biphenyl-3-yl]oxamic Acid], the inhibition at 0.1 µM on recombinant human PAI-1 [1] amounted to 0%. In addition, the IC50 came out at 1610 nM at recombinant rat PAI-1 and 1250 nM at recombinant human PAI-1 [2].
On to `CC(C)(C)c1ccc(CN(C(=O)C(=O)O)c2cccc(-c3ccc(OC(F)(F)F)cc3)c2)cc1` [compound 9, N-[4-(tert-butyl)benzyl]-N-[4′-(trifluoromethoxy)biphenyl-3-yl]oxamic Acid], for which the inhibition at 0.1 µM on recombinant human PAI-1 [1] is 0%. Besides, the inhibition at 10 µM on recombinant rat PAI-1 was > 99%. Also, the values for the concentration for half-maximal inhibition (IC50) on recombinant rat PAI-1 and on recombinant human PAI-1 [2] were 2760 nM and 1710 nM, respectively.
As to `CC(C)(C)c1ccc(CN(C(=O)C(=O)O)c2ccc(-c3ccc(OC(F)(F)F)cc3)cc2Cl)cc1` [compound 26, N-[4-(tert-butyl)benzyl]-N-[3-chloro-4′-(trifluoromethoxy)biphenyl-4-yl]oxamic Acid], the IC50 is 2160 nM at recombinant rat PAI-1 and 1170 nM on recombinant human PAI-1 [2].
Regarding `CC(C)(C)c1ccc(CN(C(=O)C(=O)O)c2ccc(Cl)cc2-c2ccc(OC(F)(F)F)cc2)cc1` [compound 72, N-[4-(tert-butyl)benzyl]-N-[5-chloro-4′-(trifluoromethoxy)biphenyl-2-yl]oxamic Acid], the IC50 on recombinant rat PAI-1 is 2140 nM. Further, at recombinant human PAI-1 [2], the inhibition at 3 µM was > 99% and the IC50 was 1060 nM.
`CCCOc1ccc(-c2ccc(OC(F)(F)F)cc2)cc1N(Cc1ccc(C(C)(C)C)cc1)C(=O)C(=O)O` [compound 68, N-[4-(tert-butyl)benzyl]-N-[4-propoxy-4′-(trifluoromethoxy)biphenyl-3-yl]oxamic Acid]: on recombinant rat PAI-1, the inhibition at 10 µM is > 99%. The IC50 was determined as 1790 nM at recombinant rat PAI-1 and 1180 nM on recombinant human PAI-1 [2].
As to `CCCCOc1ccc(N(Cc2ccc(C(C)(C)C)cc2)C(=O)C(=O)O)cc1-c1ccc(OC(F)(F)F)cc1` [compound 73, N-[4-(tert-butyl)benzyl]-N-[2-butoxy-4′-(trifluoromethoxy)biphenyl-5-yl]oxamic Acid], at recombinant rat PAI-1, the IC50 was found to be 1820 nM. For the same molecule, at recombinant human PAI-1 [2], the inhibition at 3 µM is > 99% and the IC50 came out at 1130 nM.
In the case of `CC(C)(C)c1ccc(CN(C(=O)C(=O)O)c2cccc(Oc3ccc(OC(F)(F)F)cc3)c2)cc1` [compound 52, N-[4-(tert-butyl)benzyl]-N-{3-[4-(trifluoromethoxy)phenoxy]phenyl}oxamic Acid], the values for the IC50 on recombinant rat PAI-1 and at recombinant human PAI-1 [2] were 3040 nM and 1840 nM, respectively.
